The values that follow come from patent publication EP4603105A1, “PHARMACEUTICAL COMPOSITION CONTAINING CYCLIC COMPOUND HAVING SELECTIVE KRAS INHIBITORY EFFECT AGAINST HRAS AND NRAS” (CHUGAI SEIYAKU KABUSHIKI KAISHA, priority 2022, dated 2024).

One assay has as its target HRAS wild-type protein (Homo sapiens, UniProt P01112). The assay can be described thus: Binding to HRAS by surface plasmon resonance (SPR), KD and KD ratio to KRAS. Conditions: ratio of KD for HRAS wild-type protein to KD for KRAS. In short, it runs like this:
(§1)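 GDP-bound biotin-Avi RAS captured at ~100–300 RU, 30°C, pH 7.4 HBS containing 10 µM GDP, 10 mM MgCl2, 1 mM DTT, 0.01% Tween 20 and 4% DMSO. KD by 1:1 fitting.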
On the technique in general: Surface plasmon resonance follows binding to a sensor surface in real time, without labels.

For assay [1], the target named is GDP-bound NRAS wild-type protein (Homo sapiens, UniProt P01111). The assay can be described thus: Binding to NRAS by surface plasmon resonance (SPR), KD and KD ratio to KRAS. To be noted: ratio of KD for GDP-bound NRAS wild-type protein to KD for KRAS. The method in brief:
as §1

Assay [2] has as its system human lung cancer strain NCI-H441. It counts as cell-based. In short, it runs like this: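 Readout: […] after the ATP-based reagent. Compound: serial dilutions in dimethyl sulfoxide.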

Sequence of GDP-bound NRAS wild-type protein (P01111 whole entry): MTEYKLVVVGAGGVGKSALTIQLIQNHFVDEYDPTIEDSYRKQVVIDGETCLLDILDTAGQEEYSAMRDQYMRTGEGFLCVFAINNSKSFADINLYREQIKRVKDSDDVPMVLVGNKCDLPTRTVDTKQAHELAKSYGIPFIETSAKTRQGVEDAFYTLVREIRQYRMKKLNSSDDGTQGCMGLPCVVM
Sequence of HRAS wild-type protein (P01112 whole entry): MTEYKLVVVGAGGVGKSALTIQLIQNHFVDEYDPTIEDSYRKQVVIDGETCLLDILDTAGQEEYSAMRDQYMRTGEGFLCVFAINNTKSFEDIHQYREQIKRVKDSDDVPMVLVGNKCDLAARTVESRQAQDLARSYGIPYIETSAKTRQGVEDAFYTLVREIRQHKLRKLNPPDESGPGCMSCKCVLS

On to `CCC[C@H]1C(=O)N[C@@H]([C@@H](C)CC)C(=O)N2CCC[C@H]2C(=O)N(C)[C@H]2C/C=C\CCN(C2=O)[C@@H](Cc2ccc(C)cc2)C(=O)N(C)CC(=O)N[C@@H](CCc2ccc(C(F)(F)F)c(OC)c2)C(=O)N2C[C@H](OCC)C[C@H]2C(=O)N(C)C2(CCC2)C(=O)N(C)[C@@H](C2CCCC2)C(=O)N(C)[C@H](C(=O)N2CCCCC2)CC(=O)N1C` [PP3100], for which, at HRAS wild-type protein, the “HRAS /KRAS” value is “B (a compound having 3 or more and less than 10 is denoted as B)”. Further, the “NRAS /KRAS” value in assay [1] was “A (a compound having 10 or more and less than 20 is denoted as A)”. Also, the concentration for half-maximal inhibition (IC50) in assay [2] worked out at 15 nM.

In the case of `CCC[C@H]1C(=O)N[C@@H]([C@@H](C)CC)C(=O)N2CCC[C@H]2C(=O)N(C)[C@H]2C/C=C\CCN(C2=O)[C@@H](Cc2ccc(C(F)(F)F)cc2)C(=O)N(C)CC(=O)N[C@@H](CCc2ccc(C(F)(F)F)c(OC)c2)C(=O)N2C[C@H](OCC)C[C@H]2C(=O)N(C)C2(CCC2)C(=O)N(C)[C@@H](C2CCCC2)C(=O)N(C)[C@H](C(=O)N2CCCC2)CC(=O)N1C` [PP3101], on HRAS wild-type protein, the “HRAS /KRAS” value is “A (a compound having 10 or more and less than 20 is denoted as A)”. Further, the “NRAS /KRAS” value in assay [1] was “A (a compound having 10 or more and less than 20 is denoted as A)”. Also, in assay [2], the concentration for half-maximal inhibition (IC50) is 4.9 nM.

As for `CCC[C@H]1C(=O)N[C@@H]([C@@H](C)CC)C(=O)N2CCC[C@H]2C(=O)N(C)[C@H]2C/C=C\CCN(C2=O)[C@@H](Cc2ccc(C)cc2)C(=O)N(C)CC(=O)N[C@@H](CCc2ccc(C(F)(F)F)c(OC)c2)C(=O)N2C[C@H](OCC)C[C@H]2C(=O)N(C)C2(CCC2)C(=O)N(C)[C@@H](C2CCCC2)C(=O)N(C)[C@H](C(=O)N2CCCC2)CC(=O)N1C` [PP3102], the “HRAS /KRAS” value on HRAS wild-type protein was “A (a compound having 10 or more and less than 20 is denoted as A)”. Also, the “NRAS /KRAS” value in assay [1] was “A (a compound having 10 or more and less than 20 is denoted as A)”. Also, in assay [2], the 50% inhibitory concentration (IC50) is 6.7 nM.

In the case of `CCC[C@H]1C(=O)N[C@@H]([C@@H](C)CC)C(=O)N(C)CC(=O)N(C)[C@H]2C/C=C\CCN(C2=O)[C@@H](Cc2ccc(C)cc2)C(=O)N(C)CC(=O)N[C@@H](CCc2ccc(C(F)(F)F)c(OC)c2)C(=O)N2C[C@H](OCC)C[C@H]2C(=O)N(C)C2(CCC2)C(=O)N(C)[C@@H](C2CCCC2)C(=O)N(C)[C@H](C(=O)N2CCCCC2)CC(=O)N1C` [PP3104], the “HRAS /KRAS” value on HRAS wild-type protein is “A (a compound having 10 or more and less than 20 is denoted as A)”. Also, the “NRAS /KRAS” value in assay [1] was “A (a compound having 10 or more and less than 20 is denoted as A)”. In assay [2], this molecule showed a half-maximal inhibitory concentration (IC50) of 3.8 nM.

`CCC[C@H]1C(=O)N[C@@H]([C@@H](C)CC)C(=O)N(C)CC(=O)N(C)[C@H]2C/C=C\CCN(C2=O)[C@@H](Cc2ccc(C(F)(F)F)cc2)C(=O)N(C)CC(=O)N[C@@H](CCc2ccc(C(F)(F)F)c(OC)c2)C(=O)N2C[C@H](OCC)C[C@H]2C(=O)N(C)C2(CCC2)C(=O)N(C)[C@@H](C2CCCC2)C(=O)N(C)[C@H](C(=O)N2CCCC2)CC(=O)N1C` [PP3105]: the “HRAS /KRAS” value on HRAS wild-type protein was “A (a compound having 10 or more and less than 20 is denoted as A)”. Besides, the “NRAS /KRAS” value in assay [1] is “AA (a compound having 20 or more is denoted as AA)”. Also, in assay [2], the IC50 is 2.5 nM.

As for `CCC[C@H]1C(=O)N[C@@H]([C@@H](C)CC)C(=O)N(C)CC(=O)N(C)[C@H]2C/C=C\CCN(C2=O)[C@@H](Cc2ccc(C)cc2)C(=O)N(C)CC(=O)N[C@@H](CCc2ccc(C(F)(F)F)c(OC)c2)C(=O)N2C[C@H](OCC)C[C@H]2C(=O)N(C)C2(CCC2)C(=O)N(C)[C@@H](C2CCCC2)C(=O)N(C)[C@H](C(=O)N2CCCC2)CC(=O)N1C` [PP3106], the “HRAS /KRAS” value at HRAS wild-type protein is “A (a compound having 10 or more and less than 20 is denoted as A)”. The “NRAS /KRAS” value in assay [1] is “A (a compound having 10 or more and less than 20 is denoted as A)”. In assay [2], it took 2.9 nM to reach half-maximal inhibition (IC50).

One may read the IC50 as the concentration needed to halve the response being measured.
